Source: patent US20130102838A1, “Oocyte Spindle-Associated Factors Improve Somatic Cell Cloning” (WORCESTER POLYTECHNIC INSTITUTE, priority 2007, published 2013)

Legend:
Metaphase II oocytes = assay: Induced enucleation of activated Metaphase II oocytes (2nd polar body extrusion); type: cell-based; conditions: MII oocytes activated with 7% EtOH or 2 μM ionomycin; Taxol 5 μg/mL, cycloheximide 10 μg/mL, demecolcine 0.4 μg/mL; control 3.7%
Description: Metaphase II oocytes are activated with 7% EtOH or 2 μM ionomycin, followed by treatment with Taxol (5 μg/mL), or cycloheximide (10 μg/mL) or demecolcine (0.4 μg/mL), resulting in the 2nd polar body extrusion.
With demecoleine-induced enucleation, activated oocytes are treated with the microttibuline destabilizing drug, demecolcine. The resulting cytoplasts are competent to support term developments. Often, cytoplasts fail to complete the second polar body extrusion. Induced enucleation can take place, just prior to activation or just after activation.

Apc11 = assay: Effect of demecolcine on Apc11 spatial localization in mouse oocytes; type: cell-based; conditions: 0.4 μg/mL, SrCl2-activated oocytes, AII, TII, Interphase
Description: (§1) In order to induce superovulation in donor mice, female CF-1 mice (Charles River Laboratories) of breeding age were injected with Pregnant Mare Serum Gonadotropin (PMSG, Calbiochem) and Human Chorionic Gonadotropin (hCG, Calbiochem). For both hormones, 5IU was administered per mouse via intraperitioneal injection. PMSG was injected 64 hours before collection and hCG was given 48 hours later. Oviducts were dissected from mice euthanized by CO2 asphyxiation and placed in FHM media (Chemicon) at 37° C. Oocytes were separated from surrounding cumulus cells by a brief exposure to bovine hyaluronidase (HA, Sigma, 150 units/ml, <10 minutes). Oocytes with poor morphology (lysed, fragmented, dark pigmentation) were discarded. Oocytes were washed three times in FHM media and randomly sorted into treatment groups. Some oocytes were immediately fixed (see below) at Metaphase of Meiosis II (MII). […]
(§2) To localize Apc11, a polyclonal antibody raised in rabbits against N-terminal amino acids of human Apc11 (Santa Cruz) was used as a primary antibody. […] Imaging was accomplished on a Zeiss Axiovert 200M inverted fluorescence microscope coupled to a Roper CoolSnapFx camera through a 63× oil emersion objective and 10× eyepiece/camera lens. […]

Rec8 = assay: Effect of demecolcine on Rec8 localization in mouse oocytes; type: cell-based; conditions: 0.4 μg/mL, SrCl2-activated oocytes
Description: (§3) In order to induce superovulation in donor mice, female CF-1 mice (Charles River Laboratories) of breeding age were injected with Pregnant Mare Serum Gonadotropin (PMSG, Calbiochem) and Human Chorionic Gonadotropin (hCG, Calbiochem). For both hormones, 5IU was administered per mouse via intraperitioneal injection. PMSG was injected 64 hours before collection and hCG was given 48 hours later. Oviducts were dissected from mice euthanized by CO2 asphyxiation and placed in FHM media (Chemicon) at 37° C. Oocytes were separated from surrounding cumulus cells by a brief exposure to bovine hyaluronidase (HA, Sigma, 150 units/ml, <10 minutes). Oocytes with poor morphology (lysed, fragmented, dark pigmentation) were discarded. Oocytes were washed three times in FHM media and randomly sorted into treatment groups. Some oocytes were immediately fixed (see below) at Metaphase of Meiosis II (MII).
(§4) For SrCl2 activation, the denuded oocytes were washed 3 times in FHM, 3 to 4 times in KSOM (without Ca^+2, Chemicon) equilibrated to 37° C. in 5% CO2, and then incubated in KSOM containing 10 mM strontium chloride at 37° C. with 5% CO2. After 15 minutes, some oocytes, depending on experimental design, were transferred to KSOM containing both SrCl2 (10 mM) and demecolcine (0.4 μg/mL) and incubated at 37° C. with 5% CO2. […]

Cdc20 = assay: Effect of demecolcine on Cdc20 localization in mouse oocytes; type: cell-based; conditions: 0.4 μg/mL, SrCl2-activated oocytes, throughout development
Description: as §3, §4

meiotic spindle = assay: Effect of demecolcine on meiotic spindle and chromatin in activated mouse oocytes; type: cell-based; conditions: 0.4 μg/mL, SrCl2-activated oocytes
Description: as §1, §2

[1] = tested on: mouse oocytes arrested at MII; conditions: standard ethanol activation protocol, data not shown

CC(=O)O[C@H]1C(=O)[C@@]2(C)[C@H]([C@H](OC(=O)c3ccccc3)[C@]3(O)C[C@H](OC(=O)[C@H](O)[C@@H](NC(=O)c4ccccc4)c4ccccc4)C(C)=C1C3(C)C)[C@]1(OC(C)=O)CO[C@@H]1C[C@@H]2O [Taxol]
induced enucleation, 2nd polar body extrusion (Metaphase II oocytes): 3.6%

C[C@@H]1C[C@@H]([C@H](O)CC2CC(=O)NC(=O)C2)C(=O)[C@@H](C)C1 [cycloheximide]
induced enucleation, 2nd polar body extrusion (Metaphase II oocytes): 16.3%

CN[C@H]1CCc2cc(OC)c(OC)c(OC)c2-c2ccc(OC)c(=O)cc21 [demecolcine]
induced enucleation, 2nd polar body extrusion (Metaphase II oocytes): 54% | Apc11 staining pattern (Apc11): non-distinct ataxia across the entire oocyte with no evidence of colocalization in any stage of development | Rec8 localization during Anaphase (Rec8; Anaphase II): aggregate in an area surrounding the chromatin, but not directly over it | Rec8 localization during Telophase (Rec8; Telophase II, continues into Interphase): direct colocalization (purple spots) with the chromatin | Cdc20 staining pattern (Cdc20): low levels of muddled signal across the cytoplasm | extrusion of chromatin (meiotic spindle; Interphase (FIG. 16)): completely extrudes its chromatin in the second polar body | meiotic spindle integrity (meiotic spindle; compared to control eggs): severely disrupted

CCO [ethanol]
eggs per experiment that failed to leave MII [1]: ≤ 50%
